This is an account of results in patent US9499535B2, “Kinase inhibitors” (ORIGENIS GMBH, priority 2011, dated 2016).

Each structure is given as a SMILES string.

Experiment [1] concerns the target T1, SYK kinase (Homo sapiens, UniProt P43405).
T1 construct: purchased Invitrogen, Carlsbad
Nature of the experiment: SYK assay (OMNIA Kinase Assay, Invitrogen). The format is biochemical. As to conditions: apparent Ki calculated from the IC50 using the Cheng-Prusoff equation; 1 mM ATP, 10 μM Peptide Substrate; read-out: SYK Activities: Ki. The gist of the method: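 Continuous SOX-fluorescence (Omnia) readout of Tyr 7 peptide (10 μM) phosphorylation with 1 mM ATP and 0.2 mM DTT at 30° C, started by SYK addition. Fluorescence (λex 360/λem 485 nm) was read every 30 s for 30 min. IC50 from velocity vs concentration; apparent Ki via Cheng-Prusoff.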

Experiment [2] has as its target MYLK (Homo sapiens, UniProt Q15746). In words: MYLK assay (LanthaScreen Eu Kinase Binding Assay). As to conditions: 5 nM MYLK, 30 nM tracer 236, RT 1 h; read-out: MYLK Activites: IC50. The gist of the method: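 TR-FRET tracer-displacement binding: 5 nM MYLK with 2 nM Eu-anti-GST antibody and 30 nM tracer 236 in kinase buffer A, 1 h at RT. The 665/615 nm emission ratio was plotted against inhibitor concentration; IC50 from variable-slope sigmoidal fit.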

The target in experiment [3] is LRRK2 (Homo sapiens, UniProt Q5S007). Nature of the experiment: LRRK2 assay (LanthaScreen Eu Kinase Binding Assay). Particulars: 5 nM LRRK2, 10 nM tracer 236, RT 1 h; read-out: LRRK2 Activites: IC50. The gist of the method:
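Kinase binding was detected by europium anti-tag antibody FRET with a competing tracer, so inhibitor binding lowers the FRET signal. IC50 came from a variable-slope sigmoidal fit of emission ratio against inhibitor concentration.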
Background: Time-resolved FRET reads energy transfer from a long-lived donor to a nearby acceptor.

Chain of LRRK2 (Q5S007 970-2527 limits assumed): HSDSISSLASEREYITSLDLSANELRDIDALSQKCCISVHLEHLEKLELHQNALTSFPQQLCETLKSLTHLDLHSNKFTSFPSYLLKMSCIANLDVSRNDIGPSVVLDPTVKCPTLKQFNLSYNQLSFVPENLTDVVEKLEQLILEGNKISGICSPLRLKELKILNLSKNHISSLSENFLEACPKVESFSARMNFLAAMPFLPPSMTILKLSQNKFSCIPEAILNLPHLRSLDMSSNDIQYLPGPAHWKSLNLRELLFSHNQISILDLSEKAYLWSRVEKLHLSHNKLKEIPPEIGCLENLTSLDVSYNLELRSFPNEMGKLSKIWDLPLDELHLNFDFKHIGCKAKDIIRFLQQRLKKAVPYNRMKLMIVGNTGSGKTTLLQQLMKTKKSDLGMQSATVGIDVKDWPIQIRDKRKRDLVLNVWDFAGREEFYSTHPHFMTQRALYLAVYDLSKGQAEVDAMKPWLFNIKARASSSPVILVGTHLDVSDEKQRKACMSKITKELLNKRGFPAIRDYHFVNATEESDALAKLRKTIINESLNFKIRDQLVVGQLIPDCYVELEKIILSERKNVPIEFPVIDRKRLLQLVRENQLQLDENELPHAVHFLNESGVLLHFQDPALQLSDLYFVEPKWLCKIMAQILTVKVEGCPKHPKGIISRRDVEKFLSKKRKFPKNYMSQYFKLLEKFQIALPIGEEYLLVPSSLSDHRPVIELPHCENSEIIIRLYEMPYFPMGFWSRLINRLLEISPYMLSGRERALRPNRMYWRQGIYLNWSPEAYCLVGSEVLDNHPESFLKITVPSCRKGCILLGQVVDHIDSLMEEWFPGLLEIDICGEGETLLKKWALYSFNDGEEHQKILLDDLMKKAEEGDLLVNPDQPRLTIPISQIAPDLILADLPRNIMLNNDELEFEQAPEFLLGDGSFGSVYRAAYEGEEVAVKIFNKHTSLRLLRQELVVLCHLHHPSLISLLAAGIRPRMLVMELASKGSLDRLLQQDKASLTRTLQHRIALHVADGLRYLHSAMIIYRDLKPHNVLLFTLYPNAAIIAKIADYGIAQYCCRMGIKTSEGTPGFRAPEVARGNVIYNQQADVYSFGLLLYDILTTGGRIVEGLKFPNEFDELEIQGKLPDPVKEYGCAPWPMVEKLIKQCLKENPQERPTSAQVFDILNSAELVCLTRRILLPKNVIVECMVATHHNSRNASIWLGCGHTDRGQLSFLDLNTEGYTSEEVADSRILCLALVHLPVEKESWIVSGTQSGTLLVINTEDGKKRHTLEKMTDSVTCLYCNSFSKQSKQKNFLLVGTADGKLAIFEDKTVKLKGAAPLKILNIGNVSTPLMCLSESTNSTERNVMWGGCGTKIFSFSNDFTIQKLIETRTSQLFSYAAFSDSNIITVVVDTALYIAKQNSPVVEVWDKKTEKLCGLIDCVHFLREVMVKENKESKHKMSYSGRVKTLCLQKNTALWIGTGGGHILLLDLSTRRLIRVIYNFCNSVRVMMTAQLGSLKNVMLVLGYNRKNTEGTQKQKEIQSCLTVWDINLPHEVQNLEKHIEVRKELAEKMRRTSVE
Chain of MYLK (Q15746 whole entry): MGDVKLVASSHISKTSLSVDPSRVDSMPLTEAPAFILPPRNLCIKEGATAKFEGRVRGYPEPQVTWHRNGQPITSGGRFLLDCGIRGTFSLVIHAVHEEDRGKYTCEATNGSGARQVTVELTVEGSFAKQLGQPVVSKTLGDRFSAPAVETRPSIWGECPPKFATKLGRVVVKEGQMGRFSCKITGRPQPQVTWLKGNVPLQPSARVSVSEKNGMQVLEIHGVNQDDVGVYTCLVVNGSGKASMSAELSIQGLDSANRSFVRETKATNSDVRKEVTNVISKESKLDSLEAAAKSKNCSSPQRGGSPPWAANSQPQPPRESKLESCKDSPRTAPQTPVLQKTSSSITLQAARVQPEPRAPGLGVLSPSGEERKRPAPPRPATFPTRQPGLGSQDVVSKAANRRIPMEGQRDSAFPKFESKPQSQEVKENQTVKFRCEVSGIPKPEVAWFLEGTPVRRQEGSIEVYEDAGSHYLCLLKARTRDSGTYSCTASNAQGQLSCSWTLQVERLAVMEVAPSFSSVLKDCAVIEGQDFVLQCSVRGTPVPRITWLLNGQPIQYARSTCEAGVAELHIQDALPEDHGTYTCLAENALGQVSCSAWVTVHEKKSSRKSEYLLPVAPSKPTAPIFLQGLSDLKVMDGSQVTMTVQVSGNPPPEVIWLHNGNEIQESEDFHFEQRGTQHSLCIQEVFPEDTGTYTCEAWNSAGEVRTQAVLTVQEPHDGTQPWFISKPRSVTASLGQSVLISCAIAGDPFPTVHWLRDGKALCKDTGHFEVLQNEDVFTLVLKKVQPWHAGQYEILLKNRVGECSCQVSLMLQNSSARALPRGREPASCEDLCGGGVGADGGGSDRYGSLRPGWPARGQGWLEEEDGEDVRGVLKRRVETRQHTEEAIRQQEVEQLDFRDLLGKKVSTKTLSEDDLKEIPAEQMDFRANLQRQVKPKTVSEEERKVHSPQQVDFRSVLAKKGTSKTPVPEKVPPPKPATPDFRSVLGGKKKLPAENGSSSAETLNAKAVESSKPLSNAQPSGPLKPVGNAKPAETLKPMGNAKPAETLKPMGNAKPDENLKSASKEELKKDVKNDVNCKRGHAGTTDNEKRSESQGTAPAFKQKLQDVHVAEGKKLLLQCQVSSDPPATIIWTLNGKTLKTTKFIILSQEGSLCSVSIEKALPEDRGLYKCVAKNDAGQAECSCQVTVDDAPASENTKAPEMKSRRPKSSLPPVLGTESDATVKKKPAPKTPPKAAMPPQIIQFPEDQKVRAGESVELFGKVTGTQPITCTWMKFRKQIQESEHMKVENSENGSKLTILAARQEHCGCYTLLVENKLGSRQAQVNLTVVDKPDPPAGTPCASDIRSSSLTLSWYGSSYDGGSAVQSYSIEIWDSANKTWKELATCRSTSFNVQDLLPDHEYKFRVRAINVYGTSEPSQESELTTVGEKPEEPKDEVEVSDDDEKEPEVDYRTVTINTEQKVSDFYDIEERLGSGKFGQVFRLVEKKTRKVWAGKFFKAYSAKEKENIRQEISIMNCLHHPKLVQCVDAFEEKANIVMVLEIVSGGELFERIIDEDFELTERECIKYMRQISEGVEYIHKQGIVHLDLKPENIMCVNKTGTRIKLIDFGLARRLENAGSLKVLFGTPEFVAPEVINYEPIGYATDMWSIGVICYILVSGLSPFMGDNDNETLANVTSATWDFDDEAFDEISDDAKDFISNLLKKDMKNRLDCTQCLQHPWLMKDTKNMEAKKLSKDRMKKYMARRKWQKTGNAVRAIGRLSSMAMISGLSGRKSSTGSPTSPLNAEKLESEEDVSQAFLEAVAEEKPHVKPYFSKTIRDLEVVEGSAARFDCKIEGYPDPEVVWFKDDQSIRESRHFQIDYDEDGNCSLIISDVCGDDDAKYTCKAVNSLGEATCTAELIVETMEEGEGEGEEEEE

Usually IC50 stands for the concentration at which inhibition is half-maximal. In the case of `COc1ccc(Nc2nc3c(OC)cccc3c3c[nH]nc23)cc1OC` [Example #167, (3,4-Dimethoxy-phenyl)-(6-methoxy-2H-pyrazolo[3,4-c]quinolin-4-yl)-amine], in experiment [1], the Ki is 10 to 100 nM. The IC50 is below 5000 nM in experiment [2] and 100 to 1000 nM in experiment [3].
Consider `COc1cccc2c1nc(Nc1cc(C3CC3)[nH]n1)c1n[nH]cc12` [Example #169, (5-Cyclopropyl-1H-pyrazol-3-yl)-(6-methoxy-2H-pyrazolo[3,4-c]quinolin-4-yl)-amine], for which the Ki in experiment [1] is below 10 nM. Further, the IC50 is below 5000 nM in experiment [2] and 10 to 100 nM in experiment [3].
Taken in the same sequence, the figures for `COc1cccc2c1nc(Nc1ccc3cn[nH]c3c1)c1n[nH]cc12` [Example #171, (1H-Indazol-6-yl)-(6-methoxy-2H-pyrazolo[3,4-c]quinolin-4-yl)-amine] were 10 to 100 nM, below 5000 nM and 100 to 1000 nM.
Taken in the same sequence, the figures for `COc1ccc2c(c1)nc(Nc1ccc3cn[nH]c3c1)c1n[nH]cc12` [Example #172, (1H-Indazol-6-yl)-(7-methoxy-2H-pyrazolo[3,4-c]quinolin-4-yl)-amine] were 10 to 100 nM, below 5000 nM and 100 to 1000 nM.
As for `COc1ccc2nc(Nc3ccc(N4CCN(C5CC5)CC4)cc3)c3n[nH]cc3c2c1` [Example #179, [4-(4-Cyclopropyl-piperazin-1-yl)-phenyl]-(8-methoxy-2H-pyrazolo[3,4-c]quinolin-4-yl)-amine], the Ki in experiment [1] was 10 to 100 nM. For the same compound, the IC50 in experiment [2] was below 5000 nM; in experiment [3] it was 100 to 1000 nM.
Taken in the same sequence, the figures for `COc1ccc2nc(Nc3ccc(N4CCN(C)CC4)c(C)c3)c3n[nH]cc3c2c1` [Example #183, (8-Methoxy-2H-pyrazolo[3,4-c]quinolin-4-yl)-[3-methyl-4-(4-methyl-piperazin-1-yl)-phenyl]-amine] were 10 to 100 nM, below 5000 nM and 10 to 100 nM.
Regarding `COc1ccc2nc(Nc3ccc(N4CCNCC4)cc3)c3n[nH]cc3c2c1` [Example #184, (8-Methoxy-2H-pyrazolo[3,4-c]quinolin-4-yl)-(4-piperazin-1-yl-phenyl)-amine], the Ki in experiment [1] is below 10 nM. Besides, the figures for the IC50 in experiment [2] and in experiment [3] were below 5000 nM and 100 to 1000 nM, respectively.
Taken in the same sequence, the figures for `COc1ccc2nc(Nc3ccc(CN(C)C)cc3)c3n[nH]cc3c2c1` [Example #185, (4-Dimethylaminomethyl-phenyl)-(8-methoxy-2H-pyrazolo[3,4-c]quinolin-4-yl)-amine] were 10 to 100 nM, below 5000 nM and 100 to 1000 nM.
The corresponding values for `CCN1CCN(c2ccc(Nc3nc4ccc(OC)cc4c4c[nH]nc34)cc2)CC1` [Example #187, [4-(4-Ethyl-piperazin-1-yl)-phenyl]-(8-methoxy-2H-pyrazolo[3,4-c]quinolin-4-yl)-amine] are below 10 nM, below 5000 nM and 10 to 100 nM.
The corresponding values for `COc1ccc2nc(Nc3ccc4c(c3)NC(=O)CCC4)c3n[nH]cc3c2c1` [Example #188, 8-(8-Methoxy-2H-pyrazolo[3,4-c]quinolin-4-ylamino)-1,3,4,5-tetrahydro-benzo[b]azepin-2-one] are below 10 nM, below 5000 nM and 10 to 100 nM.
As to `COc1ccc2nc(Nc3ccc(N(C)C4CCN(C)CC4)cc3)c3n[nH]cc3c2c1` [Example #192, N-(8-Methoxy-2H-pyrazolo[3,4-c]quinolin-4-yl)-N′-methyl-N′-(1-methyl-piperidin-4-yl)-benzene-1,4-diamine], the Ki in experiment [1] is 10 to 100 nM. For the same compound, the 50% inhibitory concentration (IC50) is below 5000 nM in experiment [2] and 10 to 100 nM in experiment [3].
With `COc1ccc2nc(Nc3ccc(CCN4CCOCC4)cc3)c3n[nH]cc3c2c1` [Example #193, (8-Methoxy-2H-pyrazolo[3,4-c]quinolin-4-yl)-[4-(2-morpholin-4-yl-ethyl)-phenyl]-amine], the Ki in experiment [1] is 10 to 100 nM. The IC50 in experiment [2] was below 5000 nM; in experiment [3], 100 to 1000 nM.
Taken in the same sequence, the figures for `COc1ccc2nc(Nc3ccc(N4CCN(C)CC4)c(Cl)c3)c3n[nH]cc3c2c1` [Example #195, [3-Chloro-4-(4-methyl-piperazin-1-yl)-phenyl]-(8-methoxy-2H-pyrazolo[3,4-c]quinolin-4-yl)-amine] were 10 to 100 nM, below 5000 nM and 100 to 1000 nM.
The corresponding values for `COc1cccc2nc(Nc3cc(C4CC4)[nH]n3)c3n[nH]cc3c12` [Example #199, (5-Cyclopropyl-1H-pyrazol-3-yl)-(9-methoxy-2H-pyrazolo[3,4-c]quinolin-4-yl)-amine] are 10 to 100 nM, below 5000 nM and 10 to 100 nM.
Taken in the same sequence, the figures for `COc1cccc2nc(Nc3ccc(N4CCN(C)CC4)cc3)c3n[nH]cc3c12` [Example #201, (9-Methoxy-2H-pyrazolo[3,4-c]quinolin-4-yl)-[4-(4-methyl-piperazin-1-yl)-phenyl]-amine] were 10 to 100 nM, below 5000 nM and 100 to 1000 nM.
In the case of `COc1cccc2nc(Nc3ccc(N4CCOCC4)cc3)c3n[nH]cc3c12` [Example #202, (9-Methoxy-2H-pyrazolo[3,4-c]quinolin-4-yl)-(4-morpholin-4-yl-phenyl)-amine], the Ki in experiment [1] was 10 to 100 nM. Moreover, the IC50 in experiment [2] is below 5000 nM; in experiment [3] it was 10 to 100 nM.
For the compound `COc1cccc2nc(Nc3ccc4cn[nH]c4c3)c3n[nH]cc3c12` [Example #203, (1H-Indazol-6-yl)-(9-methoxy-2H-pyrazolo[3,4-c]quinolin-4-yl)-amine], the Ki in experiment [1] is 10 to 100 nM. In addition, the values for the IC50 in experiment [2] and in experiment [3] were below 5000 nM and 10 to 100 nM, respectively.
Turning to `COc1ccc2nc(Nc3ccc(OC)nc3)c3n[nH]cc3c2c1` [Example #206, (8-Methoxy-2H-pyrazolo[3,4-c]quinolin-4-yl)-(6-methoxy-pyridin-3-yl)-amine], the Ki in experiment [1] is 10 to 100 nM. The IC50 was below 5000 nM in experiment [2] and 100 to 1000 nM in experiment [3].
Taken in the same sequence, the figures for `Cc1[nH]nc2c(Nc3ccc(N4CCN(C)CC4)cc3)nc3ccccc3c12` [Example #208, [4-(4-Methyl-piperazin-1-yl)-phenyl]-(1-methyl-2H-pyrazolo[3,4-c]quinolin-4-yl)-amine] were 10 to 100 nM, below 5000 nM and 100 to 1000 nM.
Taken in the same sequence, the figures for `Cc1[nH]nc2c(Nc3ccc4cn[nH]c4c3)nc3ccccc3c12` [Example #209, (1H-Indazol-6-yl)-(1-methyl-2H-pyrazolo[3,4-c]quinolin-4-yl)-amine] were below 10 nM, below 5000 nM and 10 to 100 nM.
Taken in the same sequence, the figures for `COc1ccc2nc(Nc3cccc(N4CCNCC4)c3)c3n[nH]cc3c2c1` [Example #221, (8-Methoxy-2H-pyrazolo[3,4-c]quinolin-4-yl)-(3-piperazin-1-yl-phenyl)-amine] were 100 to 1000 nM, below 5000 nM and 100 to 1000 nM.
`CCN(CC)CCNC(=O)c1ccc(Nc2nc3ccc(OC)cc3c3c[nH]nc23)cc1` [Example #222, N-(2-Diethylamino-ethyl)-4-(8-methoxy-2H-pyrazolo[3,4-c]quinolin-4-ylamino)-benzamide]: the Ki in experiment [1] is below 10 nM. Further, the IC50 is below 5000 nM in experiment [2] and 100 to 1000 nM in experiment [3].
The corresponding values for `COc1ccc2nc(Nc3cnc(N4CCN(C)CC4)nc3)c3n[nH]cc3c2c1` [Example #223, (8-Methoxy-2H-pyrazolo[3,4-c]quinolin-4-yl)-[2-(4-methyl-piperazin-1-yl)-pyrimidin-5-yl]-amine] are 100 to 1000 nM, below 5000 nM and 100 to 1000 nM.
Turning to `COc1ccc2nc(Nc3cccc(N4CCN(C)CC4)c3)c3n[nH]cc3c2c1` [Example #228, (8-Methoxy-2H-pyrazolo[3,4-c]quinolin-4-yl)-[3-(4-methyl-piperazin-1-yl)-phenyl]-amine], in experiment [1], the Ki is 10 to 100 nM. Further, the IC50 is below 5000 nM in experiment [2] and 100 to 1000 nM in experiment [3].
With `COc1ccc2nc(Nc3cccc(OCCN4CCNCC4)c3)c3n[nH]cc3c2c1` [Example #229, (8-Methoxy-2H-pyrazolo[3,4-c]quinolin-4-yl)-[3-(2-piperazin-1-yl-ethoxy)-phenyl]-amine], the Ki in experiment [1] is 100 to 1000 nM. Further, the IC50 in experiment [2] was below 5000 nM; in experiment [3], 100 to 1000 nM.
Regarding `COc1ccc2nc(Nc3cnc4c(c3)CN(C)CC4)c3n[nH]cc3c2c1` [Example #230, (8-Methoxy-2H-pyrazolo[3,4-c]quinolin-4-yl)-(6-methyl-5,6,7,8-tetrahydro-[1,6]naphthyridin-3-yl)-amine], in experiment [1], the Ki was 100 to 1000 nM. Besides, the values for the IC50 in experiment [2] and in experiment [3] were below 5000 nM and 100 to 1000 nM, respectively.
With `COc1ccc2nc(Nc3ccc(C(=O)N4CCOCC4)cc3)c3n[nH]cc3c2c1` [Example #232, [4-(8-Methoxy-2H-pyrazolo[3,4-c]quinolin-4-ylamino)-phenyl]-morpholin-4-yl-methanone], the Ki in experiment [1] is 10 to 100 nM. Moreover, the IC50 in experiment [2] is below 5000 nM; in experiment [3] it was 100 to 1000 nM.
For `COc1ccc2nc(Nc3ccc(CN4CCCC4)cc3)c3n[nH]cc3c2c1` [Example #234, (8-Methoxy-2H-pyrazolo[3,4-c]quinolin-4-yl)-(4-pyrrolidin-1-ylmethyl-phenyl)-amine], in experiment [1], the Ki was 10 to 100 nM. For the same compound, the IC50 is below 5000 nM in experiment [2] and 10 to 100 nM in experiment [3].
